US7273863B1, “Benzophenones as inhibitors of reverse transcriptase” (SmithKline Beecham Corporation, priority 1999, dated 2007)

How the values were obtained:
HIV-1 (strain IIIB) = experiment: MT4 cell assay, antiviral HIV activity (propidium iodide); type: cell-based; details: Human immunodeficiency virus 1, IIIB; Virus Type HIV-1; Assay MT4; read-out: IC50 (nM) Range
Protocol: Antiviral HIV activity and compound-induced cytotoxicity were measured in parallel by means of a propidium iodide based procedure in the human T-cell lymphotropic virus transformed cell line MT4. Aliquots of the test compounds were serially diluted in medium (RPMI 1640, 10% fetal calf serum (FCS), and gentamycin) in 96-well plates (Costar 3598) using a Cetus Pro/Pette. Exponentially growing MT4 cells were harvested and centrifuged at 1000 rpm for 10 min in a Jouan centrifuge (model CR 4 12). Cell pellets were resuspended in fresh medium (RPMI 1640, 20% FCS, 20% IL-2, and gentamycin) to a density of 5×10^5 cells/ml. Cell aliquots were infected by the addition of HIV-1 (strain IIIB) diluted to give a viral multiplicity of infection of 100×TCID50. A similar cell aliquot was diluted with medium to provide a mock-infected control. Cell infection was allowed to proceed for 1 hr at 37° C. in a tissue culture incubator with humidified 5% CO2 atmosphere. After the 1 hr incubation the virus/cell suspensions were diluted 6-fold with fresh medium, and 125 μl of the cell suspension was added to each well of the plate containing pre-diluted compound. Plates were then placed in a tissue culture incubator with humidified 5% CO2 for 5 days. At the end of the incubation period, 27 μl of 5% Nonidet-40 was added to each well of the incubation plate. After thorough mixing with a Costar multitip pipetter, 60 μl of the mixture was transferred to filter-bottomed 96-well plates. The plates were analyzed in an automated assay instrument (Screen Machine, Idexx Laboratories). The control and standard used was 3′-azido-3′-deoxythymidine tested over a concentration range of 0.01 to 1 μM in every assay. […] The assay-makes use of a propidium iodide dye to estimate the DNA content of each well.
The antiviral effect of a test compound is reported as an IC50, i.e. the inhibitory concentration that would produce a 50% decrease in the HIV-induced cytopathic effect. This effect is measured by the amount of test compound required to restore 50% of the cell growth of HIV-infected MT4 cells, compared to uninfected MT4 cell controls. IC50 was calculated by RoboSage, Automated Curve Fitting Program, version 5.00, 10 Jul. 1995.
For each assay plate, the results (relative fluorescence units, rfU) of wells containing uninfected cells or infected cells with no compound were averaged, respectively. For measurements of compound-induced cytotoxicty, results from wells containing various compound concentrations and uninfected cells were compared to the average of uninfected cells without compound treatment. Percent of cells remaining is determined by the following formula: Percent of cells remaining=(compound−treated uninfected cells, rfU/untreated uninfected cells)×100.
A level of percent of cells remaining of 79% or less indicates a significant level of direct compound-induced cytotoxicity for the compound at that concentration. When this condition occurs the results from the compound-treated infected wells at this concentration are not included in the calculation of IC50.
For measurements of compound antiviral activity, results from wells containing various compound concentrations and infected cells are compared to the average of uninfected and infected cells without compound treatment. Percent inhibition of virus is determined by the following formula: Percent inhibition of virus=(1−((ave. untreated uninfected cells−treated infected cells)/(ave. untreated uninfected cells−ave. untreated infected cells)))×100

NEV-R = experiment: as above; type: cell-based; details: Human immunodeficiency virus 1, MT4, read-out: IC50 (nM) Range

In the case of `Cc1cc(C#N)cc(C(=O)c2cc(Cl)ccc2OCC(=O)Nc2ccc(S(N)(=O)=O)cc2C)c1` [Compound 564], the IC50 (HIV-1 (strain IIIB)) is reported as < 10 nM and the IC50 (NEV-R) is reported as < 10 nM.

`Cc1cc(S(N)(=O)=O)ccc1NC(=O)COc1ccc(Cl)cc1C(=O)c1cccc(C#N)n1` [Compound 637] was tested, and the IC50 (HIV-1 (strain IIIB)) was < 10 nM and the IC50 (NEV-R) was < 10 nM.

For `Cc1cc(S(N)(=O)=O)ccc1NC(=O)COc1ccc(Cl)cc1C(=O)c1cc(F)cc(F)c1` [Compound 62], the IC50 (HIV-1 (strain IIIB)) was < 10 nM and the IC50 (NEV-R) was < 10 nM.

For `Cc1cc(S(N)(=O)=O)ccc1NC(=O)COc1ccc(Cl)cc1C(=O)c1cc(F)cc(C(F)(F)F)c1` [Compound 78], the IC50 (HIV-1 (strain IIIB)) was < 10 nM and the IC50 (NEV-R) was < 10 nM.

With `Cc1cc(C)cc(C(=O)c2cc(Cl)ccc2OCC(=O)Nc2ccc(S(N)(=O)=O)cc2C)c1` [Compound 478] the IC50 (HIV-1 (strain IIIB)) was < 10 nM and the IC50 (NEV-R) was < 10 nM.

With `Cc1cc2nc[nH]c2cc1NC(=O)COc1ccc(Cl)cc1C(=O)c1cc(F)cc(C(F)(F)F)c1` [Compound 239] the IC50 (HIV-1 (strain IIIB)) was < 10 nM and the IC50 (NEV-R) was < 10 nM.

`Cc1cc(OCCCS(N)(=O)=O)ccc1NC(=O)COc1ccc(Cl)cc1C(=O)c1cc(F)cc(C(F)(F)F)c1` [Compound 257] was tested, and the IC50 (HIV-1 (strain IIIB)) was < 10 nM and the IC50 (NEV-R) was < 10 nM.

For `Cc1cc2cn[nH]c2cc1NC(=O)COc1ccc(Cl)cc1C(=O)c1cccc(C#N)c1` [Compound 453], the IC50 (HIV-1 (strain IIIB)) was < 10 nM and the IC50 (NEV-R) was < 10 nM.

`Cc1cc(C#N)cc(C(=O)c2cc(Cl)ccc2OCC(=O)Nc2ccc(S(N)(=O)=O)nc2C)c1` [Compound 503] was tested, and the IC50 (HIV-1 (strain IIIB)) was < 10 nM and the IC50 (NEV-R) was < 10 nM.

With `Cc1cc(C#N)cc(C(=O)c2cc(Cl)ccc2OCC(=O)Nc2cnc(S(N)(=O)=O)cc2C)c1` [Compound 587] the IC50 (HIV-1 (strain IIIB)) was < 10 nM and the IC50 (NEV-R) was < 10 nM.

`Cc1cc(S(N)(=O)=O)ccc1NC(=O)COc1ccc(Cl)cc1C(=O)c1cc(F)cc(C#N)c1` [Compound 491] was tested, and the IC50 (HIV-1 (strain IIIB)) was < 10 nM and the IC50 (NEV-R) was < 10 nM.

In the case of `CCc1cc(C#N)cc(C(=O)c2cc(Cl)ccc2OCC(=O)Nc2ccc(S(N)(=O)=O)cc2C)c1` [Compound 498], the IC50 (HIV-1 (strain IIIB)) is reported as < 10 nM and the IC50 (NEV-R) is reported as < 10 nM.

For `Cc1cc(S(N)(=O)=O)ccc1NC(=O)COc1ccc(Cl)cc1C(=O)c1cccc(C#N)c1` [Compound 448], the IC50 (HIV-1 (strain IIIB)) was < 10 nM and the IC50 (NEV-R) was < 10 nM.

In the case of `Cc1cc(C#N)cc(C(=O)c2cc(Cl)ccc2OCC(=O)Nc2ccc(OCCCN3CC=CC3)cc2C)c1` [Compound 593], the IC50 (HIV-1 (strain IIIB)) is reported as < 10 nM and the IC50 (NEV-R) is reported as < 10 nM.

In the case of `Cc1cc(S(N)(=O)=O)ccc1NC(=O)COc1ccc(Cl)cc1C(=O)c1cc(Cl)cc(C#N)c1` [Compound 475], the IC50 (HIV-1 (strain IIIB)) is reported as < 10 nM and the IC50 (NEV-R) is reported as < 10 nM.
